From ChEMBL document CHEMBL6096689, “Structure-Guided Development of ClpP Agonists with Potent Therapeutic Activities against Staphylococcus aureus Infection” (J Med Chem, 2025)
≈ marks a conversion by molar mass, not a printed value.

Experiments:
Staphylococcus aureus [1] = assay: microbe, parasite or virus in culture; type: functional; conditions: Newman, time 18 hrs
Description: Antibacterial activity against Staphylococcus aureus Newman assessed as inhibition of visible growth of bacteria incubated for 18 hrs by absorbance based analysis

[2] = target: T1, ATP-dependent Clp protease proteolytic subunit (Staphylococcus aureus (strain NCTC 8325), UniProt Q2G036); assay: Agonist activity at Staphylococcus aureus ClpP extracted from Escherichia coli BL21 (DE3) cells using alpha-casein as substrate assessed as substrate hydrolysis preincubated for 15 mins followed by substrate addition and measured after 2 hrs by SDS-PAGE analysis
T1 sequence (Q2G036 whole entry): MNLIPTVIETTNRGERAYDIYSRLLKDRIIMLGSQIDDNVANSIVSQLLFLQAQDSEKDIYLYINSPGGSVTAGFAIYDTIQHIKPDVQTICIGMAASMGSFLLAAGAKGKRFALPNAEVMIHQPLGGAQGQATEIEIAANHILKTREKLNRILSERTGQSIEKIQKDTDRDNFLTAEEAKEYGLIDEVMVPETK

Staphylococcus aureus [3] = assay: microbe, parasite or virus in culture; type: functional; conditions: time 18 hrs
Description: Antibacterial activity against multidrug-resistant Staphylococcus aureus clinical isolate XJ025 assessed as inhibition of visible growth of bacteria incubated for 18 hrs by absorbance based analysis

Staphylococcus aureus [4] = assay: microbe, parasite or virus in culture; type: functional; conditions: USA300, time 18 hrs
Description: Antibacterial activity against methicillin-resistant Staphylococcus aureus USA300 assessed as inhibition of visible growth of bacteria incubated for 18 hrs by absorbance based analysis

Staphylococcus aureus [5] = assay: microbe, parasite or virus in culture; type: functional; conditions: time 18 hrs; remark: listed apart in the source
Description: Antibacterial activity against multidrug-resistant Staphylococcus aureus clinical isolate XJ051 assessed as inhibition of visible growth of bacteria incubated for 18 hrs by absorbance based analysis

Staphylococcus aureus [6] = assay: microbe, parasite or virus in culture; type: functional; conditions: time 18 hrs; remark: listed apart in the source
Description: Antibacterial activity against multidrug-resistant Staphylococcus aureus clinical isolate XJ052 assessed as inhibition of visible growth of bacteria incubated for 18 hrs by absorbance based analysis

Staphylococcus aureus [7] = assay: microbe, parasite or virus in culture; type: functional; conditions: NRS-70, time 18 hrs
Description: Antibacterial activity against methicillin-resistant Staphylococcus aureus NRS-70 assessed as inhibition of visible growth of bacteria incubated for 18 hrs by absorbance based analysis

Staphylococcus aureus [8] = assay: microbe, parasite or virus in culture; type: functional; conditions: time 18 hrs; remark: listed apart in the source
Description: Antibacterial activity against multidrug-resistant Staphylococcus aureus clinical isolate XJ009 assessed as inhibition of visible growth of bacteria incubated for 18 hrs by absorbance based analysis

Staphylococcus aureus [9] = assay: microbe, parasite or virus in culture; type: functional; conditions: NRS-271, time 18 hrs
Description: Antibacterial activity against methicillin-resistant Staphylococcus aureus NRS-271 assessed as inhibition of visible growth of bacteria incubated for 18 hrs by absorbance based analysis

Staphylococcus aureus [10] = assay: microbe, parasite or virus in culture; type: functional; conditions: time 18 hrs; remark: listed apart in the source
Description: Antibacterial activity against multidrug-resistant Staphylococcus aureus clinical isolate XJ049 assessed as inhibition of visible growth of bacteria incubated for 18 hrs by absorbance based analysis

Staphylococcus aureus [11] = assay: microbe, parasite or virus in culture; type: functional; conditions: NRS-108, time 18 hrs
Description: Antibacterial activity against methicillin-resistant Staphylococcus aureus NRS-108 assessed as inhibition of visible growth of bacteria incubated for 18 hrs by absorbance based analysis

Staphylococcus aureus [12] = assay: microbe, parasite or virus in culture; type: functional; conditions: NRS-1, time 18 hrs
Description: Antibacterial activity against methicillin-resistant Staphylococcus aureus NRS-1 assessed as inhibition of visible growth of bacteria incubated for 18 hrs by absorbance based analysis

| MIC (Staphylococcus aureus [1]) [µg/mL] | EC50 [2] [µM] | SMILES | also measured |
| --- | --- | --- | --- |
| 0.25 (≈ 0.469 µM) | 1.52 | CC[C@H](C)[C@H]1C(=O)N(Cc2ccc(C)c3ccccc23)C[C@@H]2N(C(=O)NCCCC(F)(F)F)CCC(=O)N12 | – |
| 128 (≈ 253 µM) | 6.9 | CC[C@H](C)[C@H]1C(=O)N(Cc2cccc3ccccc23)C[C@@H]2N(C(=O)NCCC3CCOC3)CCC(=O)N12 (stereo partly drawn) | – |
| 4 (≈ 6.93 µM) | 1.2 | CC[C@@H](C)[C@H]1C(=O)N(Cc2cccc3ccccc23)C[C@@H]2N(C(=O)NCc3ccc(Br)cc3)CCC(=O)N12 | – |
| 32 (≈ 66.9 µM) | 4.9 | CC[C@H](C)[C@H]1C(=O)N(Cc2cccc3ccccc23)C[C@@H]2N(C(=O)NCC(C)(C)C)CCC(=O)N12 | – |
| 2 (≈ 3.67 µM) | 1.5 | [N-]=[N+]=NCCC[C@H]1C(=O)N(Cc2cccc3ccccc23)C[C@@H]2N(C(=O)NCCCC(F)(F)F)CCC(=O)N21 | – |
| 8 (≈ 17.2 µM) | 3.8 | CC[C@H](C)[C@H]1C(=O)N(Cc2cccc3ccccc23)C[C@@H]2N(C(=O)NCC(C)C)CCC(=O)N12 | – |
| 0.5 (≈ 0.932 µM) | 1.01 | CC[C@H](C)[C@H]1C(=O)N(Cc2ccc(F)c3ccccc23)C[C@@H]2N(C(=O)NCCCC(F)(F)F)CCC(=O)N12 | – |
| 16 (≈ 29.2 µM) | 1.1 | O=C1[C@H](Cc2ccc(O)cc2)N2C(=O)CCN(C(=O)NCc3ccccc3)[C@H]2CN1Cc1cccc2ccccc12 | – |
| > 128 | 5.2 | CC[C@H](C)[C@H]1C(=O)N(Cc2cccc3ccccc23)C[C@@H]2N(C(=O)NCCc3ccco3)CCC(=O)N12 | – |
| 4 (≈ 7.54 µM) | 2 | O=C1[C@H](CC2CCC2)N2C(=O)CCN(C(=O)NCCCC(F)(F)F)[C@H]2CN1Cc1cccc2ccccc12 | – |
| 64 (≈ 135 µM) | 4.5 | O=C1[C@H](CO)N2C(=O)CCN(C(=O)NCc3ccccc3)[C@H]2CN1Cc1cccc2ccccc12 | – |
| 16 (≈ 29.8 µM) | 0.78 | CC[C@H](C)[C@H]1C(=O)N(Cc2cc(Cl)cc(Cl)c2)C[C@@H]2N(C(=O)NCCCC(F)(F)F)CCC(=O)N12 | – |
| 16 (≈ 35 µM) | 2.5 | C[C@H]1C(=O)N(Cc2cccc3ccccc23)C[C@@H]2N(C(=O)NCc3ccccc3)CCC(=O)N21 | – |
| 2 (≈ 4.18 µM) | 1.8 | CCC(C)CNC(=O)N1CCC(=O)N2[C@@H]([C@@H](C)CC)C(=O)N(Cc3cccc4ccccc34)C[C@H]12 (stereo partly drawn) | – |
| 32 (≈ 59.5 µM) | 1 | CC[C@H](C)[C@H]1C(=O)N(Cc2ccc(Cl)cc2Cl)C[C@@H]2N(C(=O)NCCCC(F)(F)F)CCC(=O)N12 | – |
| > 128 | 26.1 | CC[C@H](C)[C@H]1C(=O)N(Cc2cccc3ccccc23)C[C@@H]2N(C(=O)NCCC(C)=O)CCC(=O)N12 | – |
| 128 (≈ 259 µM) | 17.3 | CC[C@H](C)[C@H]1C(=O)N(Cc2cccc3ccccc23)C[C@@H]2N(C(=O)NCCC(=O)OC)CCC(=O)N12 | – |
| 2 (≈ 4.3 µM) | 1.6 | CCCCNC(=O)N1CCC(=O)N2[C@@H]([C@@H](C)CC)C(=O)N(Cc3cccc4ccccc34)C[C@H]12 | – |
| 4 (≈ 7.99 µM) | 1.9 | C#CC[C@H]1C(=O)N(Cc2cccc3ccccc23)C[C@@H]2N(C(=O)NCCCC(F)(F)F)CCC(=O)N21 | – |
| 4 (≈ 7.96 µM) | 1.4 | C=CC[C@H]1C(=O)N(Cc2cccc3ccccc23)C[C@@H]2N(C(=O)NCCCC(F)(F)F)CCC(=O)N21 | – |
| 8 (≈ 15.5 µM) | 3.1 | CSCC[C@H]1C(=O)N(Cc2cccc3ccccc23)C[C@@H]2N(C(=O)NCc3ccccc3)CCC(=O)N21 | – |

| SMILES | MIC (Staphylococcus aureus [1]) [µg/mL] | EC50 [2] [µM] | also measured |
| --- | --- | --- | --- |
| CCn1cc(C(=O)O)c(=O)c2cc(F)c(N3CCNCC3)cc21 [NORFLOXACIN] | 0.25 (≈ 0.783 µM) | – | MIC (Staphylococcus aureus [3]): > 128 µg/mL; MIC (Staphylococcus aureus [4]): 16 µg/mL (≈ 50.1 µM); MIC (Staphylococcus aureus [5]): > 128 µg/mL; MIC (Staphylococcus aureus [6]): > 128 µg/mL; MIC (Staphylococcus aureus [7]): 1 µg/mL (≈ 3.13 µM); MIC (Staphylococcus aureus [8]): > 128 µg/mL; MIC (Staphylococcus aureus [9]): > 128 µg/mL; MIC (Staphylococcus aureus [10]): > 128 µg/mL; MIC (Staphylococcus aureus [11]): 32 µg/mL (≈ 100 µM); MIC (Staphylococcus aureus [12]): 64 µg/mL (≈ 200 µM) |
